Experimental data from the supplement of paper PMC6045584.
± gives the standard deviation of the averaged measurements.

Key:
NUTLIN3 = compound: COc1ccc(C2=N[C@@H](c3ccc(Cl)cc3)[C@@H](c3ccc(Cl)cc3)N2C(=O)N2CCNC(=O)C2)c(OC(C)C)c1 [NUTLIN3]; assay: surviving fraction relative to DMSO-only wells; higher = less growth inhibition; conditions: exposure time: 5 days
In short: (§1)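 Lines were retained only if, across three screens, replicate Pearson r was >0.7 and median Z' was >0.3. Viability was measured as CellTiter-Glo luminescence and reported as surviving fraction relative to the median of DMSO-only wells. Readings followed 10 minutes at room temperature, after log-phase tumour cells seeded at 250–500 per well in 384-well plates had been exposed, from 24 hours after seeding, continuously for five days to inhibitors at 0.5, 1, 5, 10, 50, 100, 500 and 1000 nM.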

DECITABINE = compound: Nc1ncn([C@H]2C[C@H](O)[C@@H](CO)O2)c(=O)n1 [DECITABINE]; assay: as above; conditions: exposure time: 5 days
In short: as §1

MDAMB361 BREAST
surviving fraction (NUTLIN3; 0.5 nM): 0.854 ± 0.032
surviving fraction (NUTLIN3; 1 nM): 0.793 ± 0.036
surviving fraction (NUTLIN3; 5 nM): 0.809 ± 0.075
surviving fraction (NUTLIN3; 10 nM): 0.844 ± 0.097
surviving fraction (NUTLIN3; 50 nM): 0.887 ± 0.12
surviving fraction (NUTLIN3; 100 nM): 0.923 ± 0.063
surviving fraction (NUTLIN3; 500 nM): 0.907 ± 0.067
surviving fraction (NUTLIN3; 1000 nM): 0.825 ± 0.025
surviving fraction (DECITABINE; 0.5 nM): 0.895 ± 0.057
surviving fraction (DECITABINE; 1 nM): 0.909 ± 0.034
surviving fraction (DECITABINE; 5 nM): 0.938 ± 0.08
surviving fraction (DECITABINE; 10 nM): 0.875 ± 0.038
surviving fraction (DECITABINE; 50 nM): 0.906 ± 0.19
surviving fraction (DECITABINE; 100 nM): 0.915 ± 0.17
surviving fraction (DECITABINE; 500 nM): 0.99 ± 0.2
surviving fraction (DECITABINE; 1000 nM): 0.921 ± 0.084

JURKAT HAEMATOPOIETIC AND LYMPHOID TISSUE
surviving fraction (NUTLIN3; 0.5 nM): 1.11 ± 0.031
surviving fraction (NUTLIN3; 1 nM): 1.1 ± 0.015
surviving fraction (NUTLIN3; 5 nM): 1.07 ± 0.015
surviving fraction (NUTLIN3; 10 nM): 1.06 ± 0.017
surviving fraction (NUTLIN3; 50 nM): 1.05 ± 0.078
surviving fraction (NUTLIN3; 100 nM): 1.03 ± 0.012
surviving fraction (NUTLIN3; 500 nM): 1.02 ± 0.022
surviving fraction (NUTLIN3; 1000 nM): 1.03 ± 0.013
surviving fraction (DECITABINE; 0.5 nM): 1 ± 0.04
surviving fraction (DECITABINE; 1 nM): 1.06 ± 0.025
surviving fraction (DECITABINE; 5 nM): 0.823 ± 0.022
surviving fraction (DECITABINE; 10 nM): 0.746 ± 0.034
surviving fraction (DECITABINE; 50 nM): 0.121 ± 0.0055
surviving fraction (DECITABINE; 100 nM): 0.072 ± 0.003
surviving fraction (DECITABINE; 500 nM): 0.0327 ± 0.00058
surviving fraction (DECITABINE; 1000 nM): 0.028 ± 0.001

SCC003 HEADNECK
surviving fraction (NUTLIN3; 0.5 nM): 1.05 ± 0.12
surviving fraction (NUTLIN3; 1 nM): 1.01 ± 0.081
surviving fraction (NUTLIN3; 5 nM): 1.03 ± 0.12
surviving fraction (NUTLIN3; 10 nM): 1 ± 0.088
surviving fraction (NUTLIN3; 50 nM): 1.06 ± 0.062
surviving fraction (NUTLIN3; 100 nM): 1.12 ± 0.07
surviving fraction (NUTLIN3; 500 nM): 1.09 ± 0.089
surviving fraction (NUTLIN3; 1000 nM): 1.07 ± 0.13
surviving fraction (DECITABINE; 0.5 nM): 1.03 ± 0.038
surviving fraction (DECITABINE; 1 nM): 1.03 ± 0.032
surviving fraction (DECITABINE; 5 nM): 1.06 ± 0.067
surviving fraction (DECITABINE; 10 nM): 1.03 ± 0.055
surviving fraction (DECITABINE; 50 nM): 0.922 ± 0.047
surviving fraction (DECITABINE; 100 nM): 0.788 ± 0.032
surviving fraction (DECITABINE; 500 nM): 0.718 ± 0.032
surviving fraction (DECITABINE; 1000 nM): 0.635 ± 0.065

HCC78 LUNG
surviving fraction (NUTLIN3; 0.5 nM): 1 ± 0.075
surviving fraction (NUTLIN3; 1 nM): 0.918 ± 0.053
surviving fraction (NUTLIN3; 5 nM): 0.918 ± 0.19
surviving fraction (NUTLIN3; 10 nM): 0.883 ± 0.18
surviving fraction (NUTLIN3; 50 nM): 0.946 ± 0.12
surviving fraction (NUTLIN3; 100 nM): 0.877 ± 0.11
surviving fraction (NUTLIN3; 500 nM): 0.889 ± 0.12
surviving fraction (NUTLIN3; 1000 nM): 0.941 ± 0.07
surviving fraction (DECITABINE; 0.5 nM): 0.979 ± 0.07
surviving fraction (DECITABINE; 1 nM): 1.01 ± 0.11
surviving fraction (DECITABINE; 5 nM): 0.899 ± 0.15
surviving fraction (DECITABINE; 10 nM): 0.913 ± 0.12
surviving fraction (DECITABINE; 50 nM): 0.777 ± 0.21
surviving fraction (DECITABINE; 100 nM): 0.709 ± 0.025
surviving fraction (DECITABINE; 500 nM): 0.213 ± 0.037
surviving fraction (DECITABINE; 1000 nM): 0.166 ± 0.036

MFM223 BREAST
surviving fraction (NUTLIN3; 0.5 nM): 1.07 ± 0.079
surviving fraction (NUTLIN3; 1 nM): 1.04 ± 0.13
surviving fraction (NUTLIN3; 5 nM): 1.08 ± 0.058
surviving fraction (NUTLIN3; 10 nM): 1.06 ± 0.027
surviving fraction (NUTLIN3; 50 nM): 1.12 ± 0.045
surviving fraction (NUTLIN3; 100 nM): 1.12 ± 0.073
surviving fraction (NUTLIN3; 500 nM): 1.12 ± 0.063
surviving fraction (NUTLIN3; 1000 nM): 1.07 ± 0.068
surviving fraction (DECITABINE; 0.5 nM): 1.5 ± 0.59
surviving fraction (DECITABINE; 1 nM): 1.51 ± 0.5
surviving fraction (DECITABINE; 5 nM): 1.45 ± 0.48
surviving fraction (DECITABINE; 10 nM): 1.47 ± 0.53
surviving fraction (DECITABINE; 50 nM): 1.05 ± 0.061
surviving fraction (DECITABINE; 100 nM): 1.05 ± 0.1
surviving fraction (DECITABINE; 500 nM): 0.993 ± 0.095
surviving fraction (DECITABINE; 1000 nM): 0.799 ± 0.02

HCC202 BREAST
surviving fraction (NUTLIN3; 0.5 nM): 1.1 ± 0.15
surviving fraction (NUTLIN3; 1 nM): 1.07 ± 0.14
surviving fraction (NUTLIN3; 5 nM): 1.14 ± 0.14
surviving fraction (NUTLIN3; 10 nM): 1.15 ± 0.17
surviving fraction (NUTLIN3; 50 nM): 1.2 ± 0.12
surviving fraction (NUTLIN3; 100 nM): 1.27 ± 0.13
surviving fraction (NUTLIN3; 500 nM): 1.23 ± 0.16
surviving fraction (NUTLIN3; 1000 nM): 1.23 ± 0.21
surviving fraction (DECITABINE; 0.5 nM): 1 ± 0.21
surviving fraction (DECITABINE; 1 nM): 1.25 ± 0.5
surviving fraction (DECITABINE; 5 nM): 1.23 ± 0.27
surviving fraction (DECITABINE; 10 nM): 1.06 ± 0.27
surviving fraction (DECITABINE; 50 nM): 1.09 ± 0.26
surviving fraction (DECITABINE; 100 nM): 1.09 ± 0.16
surviving fraction (DECITABINE; 500 nM): 1.23 ± 0.18
surviving fraction (DECITABINE; 1000 nM): 1.009 ± 0.0014

HCC1395 BREAST
surviving fraction (NUTLIN3; 0.5 nM): 1.18 ± 0.046
surviving fraction (NUTLIN3; 1 nM): 1.14 ± 0.1
surviving fraction (NUTLIN3; 5 nM): 1.25 ± 0.022
surviving fraction (NUTLIN3; 10 nM): 1.12 ± 0.069
surviving fraction (NUTLIN3; 50 nM): 1.21 ± 0.06
surviving fraction (NUTLIN3; 100 nM): 1.09 ± 0.061
surviving fraction (NUTLIN3; 500 nM): 0.999 ± 0.094
surviving fraction (NUTLIN3; 1000 nM): 1.13 ± 0.16
surviving fraction (DECITABINE; 0.5 nM): 1.19 ± 0.054
surviving fraction (DECITABINE; 1 nM): 0.956 ± 0.1
surviving fraction (DECITABINE; 5 nM): 1.34 ± 0.079
surviving fraction (DECITABINE; 10 nM): 1.23 ± 0.072
surviving fraction (DECITABINE; 50 nM): 1.26 ± 0.045
surviving fraction (DECITABINE; 100 nM): 1.25 ± 0.086
surviving fraction (DECITABINE; 500 nM): 1.17 ± 0.073
surviving fraction (DECITABINE; 1000 nM): 1.09 ± 0.031
